Columns and labels:
[1] = test system: HCV replicons (Huh-Luc cells, NS3-NS5B regions of HCV type Ib); experiment: Replicon assay (Huh-7 luc/neo cells, luciferase readout); type: cell-based; conditions: three days incubation, luciferase activity
Source text: The compounds of formula (I) were examined for activity in the inhibition of HCV RNA replication in a cellular assay. […] The cellular assay was based on a bicistronic expression construct, as described by Lohmann et al. (1999) Science vol. 285 pp. 110-113 with modifications described by Krieger et al. (2001) Journal of Virology 75: 4614-4624, in a multi-target screening strategy. In essence, the method was as follows.
The assay utilized the stably transfected cell line Huh-7 luc/neo (hereafter referred to as Huh-Luc). This cell line harbors an RNA encoding a bicistronic expression construct comprising the wild type NS3-NS5B regions of HCV type Ib translated from an Internal Ribosome Entry Site (IRES) from encephalomyocarditis virus (EMCV), preceded by a reporter portion (FfL-luciferase), and a selectable marker portion (neo^R, neomycine phosphotransferase). The construct is bordered by 5′ and 3′ NTRs (non-translated regions) from HCV type Ib. Continued culture of the replicon cells in the presence of G418 (neo^R) is dependent on the replication of the HCV RNA. The stably transfected replicon cells that express HCV RNA, which replicates autonomously and to high levels, encoding inter alia luciferase, are used for screening the antiviral compounds.
The replicon cells were plated in 384 well plates in the presence of the test and control compounds which were added in various concentrations. Following an incubation of three days, HCV replication was measured by assaying luciferase activity (using standard luciferase assay substrates and reagents and a Perkin Elmer ViewLux™ ultraHTS microplate imager). Replicon cells in the control cultures have high luciferase expression in the absence of any inhibitor. The inhibitory activity of the compound on luciferase activity was monitored on the Huh-Luc cells, enabling a dose-response curve for each test compound.

[2] = molecular target: HCV NS3/4A protease (Hepatitis C virus genotype 1a (isolate H77) (HCV), UniProt P27958); experiment: Inhibition assay (enzymatic assay), depsipeptide substrate hydrolysis; type: biochemical; conditions: full-length NS3 protease 1 nM, 25 μM NS4A cofactor, 0.5 μM substrate, competitive inhibition model
Sequence of HCV NS3/4A protease (P27958 1027-1657): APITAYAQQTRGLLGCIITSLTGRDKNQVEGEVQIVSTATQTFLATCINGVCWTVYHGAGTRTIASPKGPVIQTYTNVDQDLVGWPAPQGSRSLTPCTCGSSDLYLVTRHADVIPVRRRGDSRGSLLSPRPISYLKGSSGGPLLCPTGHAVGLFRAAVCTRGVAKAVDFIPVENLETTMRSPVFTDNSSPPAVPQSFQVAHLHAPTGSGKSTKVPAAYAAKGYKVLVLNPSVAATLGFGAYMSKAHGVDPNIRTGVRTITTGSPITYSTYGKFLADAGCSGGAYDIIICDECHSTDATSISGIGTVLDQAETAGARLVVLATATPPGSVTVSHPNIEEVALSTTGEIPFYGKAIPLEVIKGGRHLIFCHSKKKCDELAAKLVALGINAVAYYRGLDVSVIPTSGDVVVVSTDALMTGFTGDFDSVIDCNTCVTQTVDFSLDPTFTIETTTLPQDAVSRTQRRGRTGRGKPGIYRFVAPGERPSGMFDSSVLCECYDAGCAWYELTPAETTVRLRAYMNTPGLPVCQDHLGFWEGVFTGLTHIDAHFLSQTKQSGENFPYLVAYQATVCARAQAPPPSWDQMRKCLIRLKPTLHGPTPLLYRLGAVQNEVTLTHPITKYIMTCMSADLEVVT
Method: [Landro, 1997 #Biochem 36 9340-9348]. […] The solutions were stored at −20° C. between measurements.
[Liu, 1999 Analytical Biochemistry 267 331-335].

[3] = Oral pharmacokinetics of Compound nr. 47 in rat with ritonavir boosting; type: in vivo, Sprague-Dawley rats; conditions: single oral 10 mg/kg Compound nr. 47 in 50% PEG400/water, boosted with 10 mg/kg ritonavir about 30 minutes before, plasma
Method: Oral pharmacokinetics of Compound nr. 47 in male and female Sprague-Dawley rats after a single dose at 10 mg/kg, using a formulation in 50% PEG400/water and the influence of “boosting” with 10 mg/kg ritonavir were investigated.
Four male and four female Sprague-Dawley (SD)-rats (approx. body weight 200-250 g) were randomly divided into 2 groups of 2 males and females each (boosted and non-boosted) based on body weight. […] The animals were fasted shortly before the trial. Drinking water remained available ad libitum.
Rats from the non-boosted group received a single oral 10 mg/kg dose of Compound nr. 47, formulated as a 3 mg/ml 50% PEG400/water at pH 8. Rats from the boosted group received a single oral dose of ritonavir, about 30 minutes before single oral dosing with 10 mg/kg of Compound nr. 47. The drug formulations were administered by oral gavage.
From each rat, a 0.5 ml blood sample was collected at 0.5 h, 1 h, 2 h, 4 h and 8 h after dosing. Plasma concentrations were determined using HPLC-MS. Results are shown in the table 2 below, expressed as fold change in pharmacokinetic parameter of the boosted group as compared to the non-boosted group.

Compound	EC50 ([1]; Hepatitis C virus, Huh-7, 72 h)	Ki [2]	EC50 [1]	Cmax, fold change of the boosted group as compared to the non-boosted group [3]
COc1ccc2c(O[C@H]3C[C@H]4C(=O)NCCCCC/C=C\[C@@H]5C[C@@]5(C(=O)O)NC(=O)[C@@H]4C3)cc(-c3nc(C(C)C)cs3)nc2c1C [Compound 81]	10 µM	1000 nM	–	–
N-[[18-[2-[4-(isopropyl)thiazol-2-yl]-7-methoxy-8-methylquinolin-4-yloxy]-2,15-dioxo-3,14,16-triazatricyclo[14.3.0.0^4,6]nonadec-7-en-4-yl]carbonyl]-(cyclopropyl)sulfonamide [Compound 91]	–	0.05 nM	0.00854 µM	–
COc1ccc2c(O[C@@H]3C[C@H]4C(=O)N[C@]5(C(=O)NS(=O)(=O)C6CC6)C[C@H]5/C=C\CCCCN(C)C(=O)[C@@H]4C3)cc(-c3nc(C(C)C)cs3)nc2c1C [Compound 47, N-[17-[2-(4-isopropylthiazole-2-yl)-7-methoxy-8-methylquinolin-4-yloxy]-13-methyl-2,14-dioxo-3,13-diazatricyclo[13.3.0.0^4,6]octadec-7-ene-4-carbonyl](cyclopropyl)sulfonamide]	–	–	–	2.2 fold
CCc1c(OC)ccc2c(O[C@@H]3C[C@H]4C(=O)N[C@]5(C(=O)O)C[C@H]5/C=C\CCCCN(C)C(=O)[C@@H]4C3)cc(-c3nc(C(C)C)cs3)nc12 [Compound 71]	10 µM	–	–	–

Source: patent US8754106B2, “Macrocyclic inhibitors of hepatitis C virus” (Tibotec Pharmaceuticals Ltd., priority 2005, dated 2014)
